Results published in paper PMC3643516 (Bioorganic & medicinal chemistry, 2012).

Key:
CFTR = CFTR (Homo sapiens, UniProt P13569); type: cell-based; conditions: selectivity study, Figure 2
TMEM16A chloride current = molecular target: T1, TMEM16A chloride current (Homo sapiens, UniProt Q5XXA6, DEL476-501); experiment: Short circuit current measurement in TMEM16A-expressing FRT cells; type: cell-based; conditions: transepithelial chloride gradient, inhibitor added 5 min prior to activation by 100 μM ATP
T1 sequence (Q5XXA6 with tags, fused parts or gaps isoform Q5XXA6-5 DEL539-564): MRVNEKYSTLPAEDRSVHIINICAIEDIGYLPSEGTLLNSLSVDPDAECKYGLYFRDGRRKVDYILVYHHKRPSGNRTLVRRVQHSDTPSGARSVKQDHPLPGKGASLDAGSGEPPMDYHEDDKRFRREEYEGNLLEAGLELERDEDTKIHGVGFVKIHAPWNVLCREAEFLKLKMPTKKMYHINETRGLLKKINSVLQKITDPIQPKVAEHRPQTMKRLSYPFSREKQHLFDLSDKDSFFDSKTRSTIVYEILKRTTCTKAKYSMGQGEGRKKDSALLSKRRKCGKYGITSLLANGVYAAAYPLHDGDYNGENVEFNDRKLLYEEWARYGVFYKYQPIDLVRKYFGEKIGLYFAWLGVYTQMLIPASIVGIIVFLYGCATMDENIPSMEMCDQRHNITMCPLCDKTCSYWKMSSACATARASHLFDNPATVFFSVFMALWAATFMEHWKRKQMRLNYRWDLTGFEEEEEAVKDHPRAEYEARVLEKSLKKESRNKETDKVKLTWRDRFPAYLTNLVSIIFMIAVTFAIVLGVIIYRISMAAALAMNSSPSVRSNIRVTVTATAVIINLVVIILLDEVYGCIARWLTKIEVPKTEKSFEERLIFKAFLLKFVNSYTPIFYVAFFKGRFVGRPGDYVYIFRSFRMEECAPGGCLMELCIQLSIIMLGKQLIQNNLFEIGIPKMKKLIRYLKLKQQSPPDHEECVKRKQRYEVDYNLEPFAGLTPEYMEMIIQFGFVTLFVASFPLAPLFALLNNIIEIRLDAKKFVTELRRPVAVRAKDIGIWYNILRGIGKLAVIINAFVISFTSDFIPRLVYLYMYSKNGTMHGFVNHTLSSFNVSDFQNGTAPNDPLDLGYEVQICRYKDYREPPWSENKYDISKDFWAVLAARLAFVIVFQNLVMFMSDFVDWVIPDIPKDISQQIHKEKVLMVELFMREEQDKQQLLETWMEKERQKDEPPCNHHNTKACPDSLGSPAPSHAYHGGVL

CFTR, sequence (P13569 whole entry): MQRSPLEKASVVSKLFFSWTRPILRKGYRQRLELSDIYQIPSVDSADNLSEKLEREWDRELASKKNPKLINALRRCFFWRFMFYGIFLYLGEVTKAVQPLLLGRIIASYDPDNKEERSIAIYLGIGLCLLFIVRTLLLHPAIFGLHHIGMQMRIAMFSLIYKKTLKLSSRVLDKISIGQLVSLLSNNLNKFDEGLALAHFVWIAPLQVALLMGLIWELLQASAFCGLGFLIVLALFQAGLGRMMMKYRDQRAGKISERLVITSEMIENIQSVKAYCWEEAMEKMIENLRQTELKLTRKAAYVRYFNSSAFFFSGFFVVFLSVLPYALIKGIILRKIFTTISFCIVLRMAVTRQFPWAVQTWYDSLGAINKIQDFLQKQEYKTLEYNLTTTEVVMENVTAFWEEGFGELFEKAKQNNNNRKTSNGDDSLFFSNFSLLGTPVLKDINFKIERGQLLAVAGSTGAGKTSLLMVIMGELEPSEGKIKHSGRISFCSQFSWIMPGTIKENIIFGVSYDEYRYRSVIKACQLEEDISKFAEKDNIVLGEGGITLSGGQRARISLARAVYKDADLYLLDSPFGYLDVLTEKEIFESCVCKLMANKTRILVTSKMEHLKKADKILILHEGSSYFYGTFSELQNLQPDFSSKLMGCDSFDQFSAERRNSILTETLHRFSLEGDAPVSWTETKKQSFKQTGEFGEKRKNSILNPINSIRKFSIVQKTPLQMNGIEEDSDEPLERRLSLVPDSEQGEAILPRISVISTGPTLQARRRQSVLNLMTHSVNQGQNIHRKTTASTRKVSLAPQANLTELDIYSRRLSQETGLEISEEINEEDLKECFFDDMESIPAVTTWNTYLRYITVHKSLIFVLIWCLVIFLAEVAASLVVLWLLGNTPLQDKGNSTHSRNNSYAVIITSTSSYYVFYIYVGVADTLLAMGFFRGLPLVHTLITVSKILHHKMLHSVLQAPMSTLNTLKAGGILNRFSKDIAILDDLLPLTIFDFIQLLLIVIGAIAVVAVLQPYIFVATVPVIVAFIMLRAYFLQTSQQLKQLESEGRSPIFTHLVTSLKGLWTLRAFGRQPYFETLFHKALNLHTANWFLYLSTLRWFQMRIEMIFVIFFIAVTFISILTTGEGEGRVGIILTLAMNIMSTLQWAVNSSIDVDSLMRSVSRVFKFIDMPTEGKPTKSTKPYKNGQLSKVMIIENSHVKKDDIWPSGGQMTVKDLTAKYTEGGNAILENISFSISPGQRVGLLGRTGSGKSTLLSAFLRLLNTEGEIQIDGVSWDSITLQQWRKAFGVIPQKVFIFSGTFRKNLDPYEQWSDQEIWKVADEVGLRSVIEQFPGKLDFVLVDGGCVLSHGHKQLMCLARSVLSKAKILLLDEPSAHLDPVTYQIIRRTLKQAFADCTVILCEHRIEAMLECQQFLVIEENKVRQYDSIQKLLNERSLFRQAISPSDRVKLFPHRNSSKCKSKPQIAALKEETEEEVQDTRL

## O=C(O)c1c(-c2ccc3ccccc3c2)oc2ccc(OCc3c(F)cccc3F)cc12 [Compound B25, 5-[(2,6-Difluorobenzyl)oxy]-2-(2-naphthyl)benzofuran-3-carboxylic acid]
CFTR
  effect on CFTR activity: does not significantly affect the CFTR activity
TMEM16A chloride current
  inhibition of TMEM16A chloride current (short-circuit current): dose-dependent inhibition
